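Step 1: Grow cells in 96-well plates. Step 2: Expose to compound for 48 hours at 5 concentrations. Step 3: Interpolate endpoints linearly; if unreached, use highest concentration. At the GI50, growth is halved. TGI marks complete inhibition of growth.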
Columns and labels:
Experiment in all cases: NCI tumour cell line growth inhibition, 48 h
OVCAR-5 ovarian = tested on: OVCAR-5 ovarian
SW-620 colon = tested on: SW-620 colon
M14 melanoma = tested on: M14 melanoma
HT29 colon = tested on: HT29 colon
NCI-H460 lung = tested on: NCI-H460 lung
A498 renal = tested on: A498 renal
ACHN renal = tested on: ACHN renal
UO-31 renal = tested on: UO-31 renal
786-0 renal = tested on: 786-0 renal
LOX IMVI melanoma = tested on: LOX IMVI melanoma
NCI/ADR-RES ovarian = tested on: NCI/ADR-RES ovarian
IGROV1 ovarian = tested on: IGROV1 ovarian
A549 NSCLC = tested on: A549 NSCLC
MDA-MB-435 = tested on: MDA-MB-435
MDA-MB-231 breast = tested on: MDA-MB-231 breast
KM12 colon = tested on: KM12 colon
T-47D breast = tested on: T-47D breast
SR leukemia = tested on: SR leukemia
HOP-62 NSCLC = tested on: HOP-62 NSCLC
OVCAR-3 ovarian = tested on: OVCAR-3 ovarian
UACC-62 melanoma = tested on: UACC-62 melanoma
SF-268 CNS = tested on: SF-268 CNS
NCI-H23 lung = tested on: NCI-H23 lung
HS 578T breast = tested on: HS 578T breast
SK-MEL-2 melanoma = tested on: SK-MEL-2 melanoma
SF-295 CNS = tested on: SF-295 CNS
HL-60(TB) leukemia = tested on: HL-60(TB) leukemia
OVCAR-4 ovarian = tested on: OVCAR-4 ovarian
HOP-92 NSCLC = tested on: HOP-92 NSCLC
K-562 leukemia = tested on: K-562 leukemia
OVCAR-8 ovarian = tested on: OVCAR-8 ovarian
NCI-H226 lung = tested on: NCI-H226 lung
EKVX NSCLC = tested on: EKVX NSCLC
SNB-75 CNS = tested on: SNB-75 CNS
SN12C renal = tested on: SN12C renal
DU-145 prostate = tested on: DU-145 prostate
U251 CNS = tested on: U251 CNS
MCF7 breast = tested on: MCF7 breast
HCT-15 colon = tested on: HCT-15 colon
COLO 205 colon = tested on: COLO 205 colon
RPMI-8226 leukemia = tested on: RPMI-8226 leukemia
PC-3 prostate = tested on: PC-3 prostate
MALME-3M melanoma = tested on: MALME-3M melanoma
SF-539 CNS = tested on: SF-539 CNS
CCRF-CEM leukemia = tested on: CCRF-CEM leukemia
CAKI-1 renal = tested on: CAKI-1 renal
SK-MEL-28 melanoma = tested on: SK-MEL-28 melanoma
BT-549 breast = tested on: BT-549 breast
RXF 393 renal = tested on: RXF 393 renal
MOLT-4 leukemia = tested on: MOLT-4 leukemia
SK-MEL-5 melanoma = tested on: SK-MEL-5 melanoma
HCT-116 colon = tested on: HCT-116 colon
TK-10 renal = tested on: TK-10 renal
HCC-2998 colon = tested on: HCC-2998 colon
UACC-257 melanoma = tested on: UACC-257 melanoma
SNB-19 CNS = tested on: SNB-19 CNS
SK-OV-3 ovarian = tested on: SK-OV-3 ovarian
NCI-H522 lung = tested on: NCI-H522 lung

## Oc1ccccc1/C=N/Nc1nc(N/N=C/c2ccccc2O)nc(N2CCOCC2)n1
OVCAR-5 ovarian
  GI50: 6.41 µM
  TGI: > 100 µM
SW-620 colon
  GI50: 1.78 µM
  TGI: 23.4 µM
M14 melanoma
  GI50: 3.22 µM
  TGI: > 100 µM
HT29 colon
  GI50: 5.89 µM
  TGI: > 100 µM
NCI-H460 lung
  GI50: 2.3 µM
  TGI: 17.4 µM
A498 renal
  GI50: 1.09 µM
  TGI: 8.58 µM
ACHN renal
  GI50: 1.58 µM
  TGI: 44.9 µM
UO-31 renal
  GI50: 0.372 µM
  TGI: 18.7 µM
786-0 renal
  GI50: 0.709 µM
  TGI: 15.3 µM
LOX IMVI melanoma
  GI50: 0.276 µM
  TGI: 0.873 µM
NCI/ADR-RES ovarian
  GI50: 0.685 µM
  TGI: 9.37 µM
IGROV1 ovarian
  GI50: 0.966 µM
  TGI: > 100 µM
A549 NSCLC
  GI50: 2.88 µM
  TGI: 52.2 µM
MDA-MB-435
  GI50: 9.53 µM
  TGI: > 100 µM
MDA-MB-231 breast
  GI50: 2.42 µM
  TGI: 30.9 µM
KM12 colon
  GI50: 33.2 µM
  TGI: > 100 µM
T-47D breast
  GI50: 3.34 µM
  TGI: > 100 µM
SR leukemia
  GI50: 0.322 µM
  TGI: > 100 µM
HOP-62 NSCLC
  GI50: 3.51 µM
  TGI: 23 µM
OVCAR-3 ovarian
  GI50: 3.42 µM
  TGI: > 100 µM
UACC-62 melanoma
  GI50: 24.5 µM
  TGI: > 100 µM
SF-268 CNS
  GI50: 16.9 µM
  TGI: > 100 µM
NCI-H23 lung
  GI50: 4.31 µM
  TGI: 20.1 µM
HS 578T breast
  GI50: 3.24 µM
  TGI: 44.1 µM
SK-MEL-2 melanoma
  GI50: 6.06 µM
  TGI: > 100 µM
SF-295 CNS
  GI50: 7.67 µM
  TGI: > 100 µM
HL-60(TB) leukemia
  GI50: 0.193 µM
  TGI: > 100 µM
OVCAR-4 ovarian
  GI50: 2.48 µM
  TGI: 7.56 µM
HOP-92 NSCLC
  GI50: 1.65 µM
  TGI: 6.01 µM
K-562 leukemia
  GI50: 0.683 µM
  TGI: > 100 µM
OVCAR-8 ovarian
  GI50: 3.75 µM
  TGI: 34.5 µM
NCI-H226 lung
  GI50: 3.92 µM
  TGI: 20.4 µM
EKVX NSCLC
  GI50: 3.28 µM
  TGI: 32 µM
SNB-75 CNS
  GI50: 1.82 µM
  TGI: 5.26 µM
SN12C renal
  GI50: 18.3 µM
  TGI: > 100 µM
DU-145 prostate
  GI50: 6.09 µM
  TGI: > 100 µM
U251 CNS
  GI50: 3.06 µM
  TGI: 22.3 µM
MCF7 breast
  GI50: 2.39 µM
  TGI: > 100 µM
HCT-15 colon
  GI50: 0.241 µM
  TGI: 16.2 µM
COLO 205 colon
  GI50: 5.53 µM
  TGI: > 100 µM
RPMI-8226 leukemia
  GI50: 2.78 µM
  TGI: > 100 µM
PC-3 prostate
  GI50: 3.61 µM
  TGI: > 100 µM
MALME-3M melanoma
  GI50: 8.69 µM
  TGI: > 100 µM
SF-539 CNS
  GI50: 7.29 µM
  TGI: > 100 µM
CCRF-CEM leukemia
  GI50: 0.537 µM
  TGI: > 100 µM
CAKI-1 renal
  GI50: 4.52 µM
  TGI: 46.5 µM
SK-MEL-28 melanoma
  GI50: 3.2 µM
  TGI: 49.9 µM
BT-549 breast
  GI50: 5.19 µM
  TGI: > 100 µM
RXF 393 renal
  GI50: 0.272 µM
  TGI: 2.45 µM
MOLT-4 leukemia
  GI50: 1.55 µM
  TGI: > 100 µM
SK-MEL-5 melanoma
  GI50: 5.86 µM
  TGI: > 100 µM
HCT-116 colon
  GI50: 0.823 µM
  TGI: > 100 µM
TK-10 renal
  GI50: 44.9 µM
  TGI: > 100 µM
HCC-2998 colon
  GI50: 7.65 µM
  TGI: > 100 µM
UACC-257 melanoma
  GI50: 6.53 µM
  TGI: > 100 µM
SNB-19 CNS
  GI50: 3.14 µM
  TGI: 14.9 µM
SK-OV-3 ovarian
  GI50: 3.7 µM
  TGI: 13.8 µM

## O=C(CSc1nc2sc3c(c2c(=O)n1-c1ccc(Cl)cc1)CCCC3)NNC(=O)Nc1ccc(Cl)c(C(F)(F)F)c1
OVCAR-5 ovarian
  GI50: 4.4 µM
  TGI: 19.7 µM
SW-620 colon
  GI50: 3.16 µM
  TGI: 13.2 µM
M14 melanoma
  GI50: 3.42 µM
  TGI: 14.1 µM
HT29 colon
  GI50: 3.05 µM
  TGI: 9.54 µM
NCI-H460 lung
  GI50: 3.16 µM
  TGI: 10.9 µM
A498 renal
  GI50: 2.58 µM
  TGI: 8.61 µM
ACHN renal
  GI50: 3.56 µM
  TGI: 16.9 µM
UO-31 renal
  GI50: 2.85 µM
  TGI: 29.5 µM
786-0 renal
  GI50: 4.23 µM
  TGI: 16 µM
LOX IMVI melanoma
  GI50: 1.76 µM
  TGI: 3.49 µM
NCI/ADR-RES ovarian
  GI50: 6.57 µM
  TGI: 97.3 µM
IGROV1 ovarian
  GI50: 4.71 µM
  TGI: 91.7 µM
A549 NSCLC
  GI50: 3.3 µM
  TGI: 15.7 µM
MDA-MB-435
  GI50: 3.67 µM
  TGI: 14.6 µM
MDA-MB-231 breast
  GI50: 4.45 µM
  TGI: 20.5 µM
NCI-H522 lung
  GI50: 1.96 µM
  TGI: 6.05 µM
KM12 colon
  GI50: 3.75 µM
  TGI: > 100 µM
T-47D breast
  GI50: 1.83 µM
  TGI: 4.2 µM
SR leukemia
  GI50: 3.3 µM
  TGI: 46.1 µM
HOP-62 NSCLC
  GI50: 4.3 µM
  TGI: 19.1 µM
OVCAR-3 ovarian
  GI50: 2.95 µM
  TGI: 10.6 µM
UACC-62 melanoma
  GI50: 2.5 µM
  TGI: 10 µM
SF-268 CNS
  GI50: 6.21 µM
  TGI: > 100 µM
HS 578T breast
  GI50: 6.93 µM
  TGI: 73.1 µM
SK-MEL-2 melanoma
  GI50: 2.46 µM
  TGI: 7.24 µM
SF-295 CNS
  GI50: 3.11 µM
  TGI: 8.87 µM
HL-60(TB) leukemia
  GI50: 3.18 µM
  TGI: 17.7 µM
OVCAR-4 ovarian
  GI50: 1.92 µM
  TGI: 4.31 µM
HOP-92 NSCLC
  GI50: 1.44 µM
  TGI: 3.97 µM
K-562 leukemia
  GI50: 2.51 µM
  TGI: > 100 µM
OVCAR-8 ovarian
  GI50: 3.12 µM
  TGI: 11.9 µM
NCI-H226 lung
  GI50: 2.89 µM
  TGI: 11.3 µM
EKVX NSCLC
  GI50: 2.68 µM
  TGI: 8.85 µM
SNB-75 CNS
  GI50: 2.01 µM
  TGI: 7.88 µM
SN12C renal
  GI50: 3.3 µM
  TGI: 12.9 µM
DU-145 prostate
  GI50: 3.86 µM
  TGI: > 100 µM
U251 CNS
  GI50: 2.93 µM
  TGI: 10.9 µM
MCF7 breast
  GI50: 2.77 µM
  TGI: 17.6 µM
HCT-15 colon
  GI50: 3.59 µM
  TGI: 18.6 µM
COLO 205 colon
  GI50: 2.05 µM
  TGI: 4.7 µM
RPMI-8226 leukemia
  GI50: 2.99 µM
  TGI: 17.9 µM
PC-3 prostate
  GI50: 2.05 µM
  TGI: 6.62 µM
MALME-3M melanoma
  GI50: 2.45 µM
  TGI: 6.82 µM
SF-539 CNS
  GI50: 6.53 µM
  TGI: 21.2 µM
CCRF-CEM leukemia
  GI50: 3.65 µM
  TGI: > 100 µM
CAKI-1 renal
  GI50: 1.99 µM
  TGI: 6.17 µM
SK-MEL-28 melanoma
  GI50: 4.48 µM
  TGI: 17.3 µM
BT-549 breast
  GI50: 3.5 µM
  TGI: 14.4 µM
RXF 393 renal
  GI50: 2.58 µM
  TGI: 9.32 µM
MOLT-4 leukemia
  GI50: 2.74 µM
  TGI: 14.1 µM
SK-MEL-5 melanoma
  GI50: 4.06 µM
  TGI: 14.7 µM
HCT-116 colon
  GI50: 1.87 µM
  TGI: 3.99 µM
TK-10 renal
  GI50: 4.3 µM
  TGI: 23.6 µM
HCC-2998 colon
  GI50: 3.04 µM
  TGI: 9.42 µM
UACC-257 melanoma
  GI50: 2.94 µM
  TGI: 12.6 µM
SNB-19 CNS
  GI50: 4.08 µM
  TGI: > 100 µM
SK-OV-3 ovarian
  GI50: 4.66 µM
  TGI: 20.4 µM

Source: PubChem BioAssay (NCI)
